The text below walks through data of patent US9416115B2, “Fused heterocyclic compounds as ion channel modulators” (Gilead Sciences, Inc., priority 2013, dated 2016).

The target of data set [1] is hNav1.7 (Homo sapiens, UniProt Q15858). Nature of the data set: Voltage-dependent inhibition of the Nav1.7 sodium channel. Format: cell-based. The note with it: voltage-dependent block of peak current. How it is done:
HEK-293 cells stably expressing wild-type (WT) hNav1.7 were obtained from Scottish Biomedical (Glasgow, Scotland, United Kingdom). Cells are maintained with standard tissue culture procedures and stable channel expression is maintained with 500 ug/mL G418 in the culture medium. Unless otherwise noted, all reagents are purchased from Sigma-Aldrich (St Louis, Mo., U.S.A.).
Assays measuring Voltage-Dependent Block (VDB) of Nav1.7 are performed on an automated electrophysiology platform, QPatch 16X or QPatch HT (Sophion Bioscience, Copenhagen, Denmark), using the whole cell patch clamp technique to measure currents through the cell membrane. Series resistance compensation is set to 100% and series resistance and whole-cell compensation are performed automatically. Currents stored in the Sophion Bioscience Oracle database (Sophion Bioscience, Copenhagen, Denmark). Analysis is performed using QPatch Assay software and data are compiled in Excel 2010 (Microsoft, Seattle, Wash., U.S.A.).
The internal (pipette) solution consists of (in mM) 105 CsF, 10 NaF, 20 CsCl, 2 EGTA, 10 HEPES, 10 Dextrose with a pH of 7.35 and osmolarity of 300 mOsmol/kg. The external (bath) solution contains in (mM): 140 NaCl, 4 KCl, 1.8 CaCl2, 1 MgCl2, 10 dextrose, 10 HEPES, with a pH of 7.35 and osmolarity of 310 mOsmol/kg. Experiments are carried out at 23-25° C.
Compound stocks are routinely made by the Gilead Sample Bank in vials to 10 mM in dimethyl sulfoxide (DMSO). In some cases, when compounds are not soluble in DMSO, they are made in 100% ethanol. Stocks are sonicated as necessary. Compounds are diluted in extracellular solution using a MicroLab Nimbus (Hamilton Robotics, Reno, Nev.) to 1 μM in glass vials and transferred to glass well plates before robotic addition to the cells.
Cells are allowed to stabilize for 10 min after establishment of the whole-cell configuration before current is measured. The test compound is applied 3 times at 120 second intervals to allow for equilibration. Currents were leak subtracted using a P/4 procedure, low-pass Bessel filtered at 5 kHz and digitized at 25 kHz. Results are presented as mean percentage inhibition.
Voltage-dependent block of Nav1.7 peak current was measured during a voltage step to 0 mV (20 ms) following a voltage step pre-conditioning steps (−60 mV for 10 sec followed by −120 mV for 10 ms). The holding potential was −120 mV and this voltage protocol induces half maximal inactivation of Nav1.7. The voltage protocol for VDB was performed every 45 seconds in the absence and presence of compound and percentage inhibition was calculated with respect to the compound free condition.

A short description of data set [2]: Plasma concentration in the rabbit ischemia study. The following applies: iv infusion targeted to 1 uM plasma. The format is in vivo, New Zealand rabbits. The protocol:
Rabbits were anesthetized with ketamine (35 mg/kg) and xylazine (5 mg/kg) intramuscular injection (im). A tracheotomy was performed and the trachea was intubated with an endotracheal tube. The animal was ventilated with room air supplemented with oxygen using a pressure control animal ventilator (Kent Scientific Corp., Torrington, Conn.) at a respiratory rate of 40 strokes/min and peak inspiration pressure of 10 mmH2O, which was adjusted to keep blood gases and pH within the physiological range (iSTAT clinic analyzer, Heska Corp.; Waukesha, Wis.). The left femoral artery was cannulated for the measurement of blood pressure (BP). Blood samples were also withdrawn from femoral artery. The right external jugular vein was cannulated for drug/vehicle administration. Needle electrodes were inserted subcutaneously into the limbs for recording of the surface electrocardiogram (ECG).
Reference electrodes were placed in the open incision of the neck. The body temperature of the animal was monitored via a rectal thermometer and maintained at 37-40° C. by adjusting the surface temperature of the surgical table. Regional ischemia (15 min) was induced by ligating the LAD followed by 15 min of reperfusion caused by releasing the ligation. The heart was excised at the end of the experiment and the LAD was re-ligated. The ischemic area was visualized by perfusing the heart with 1% Evans blue in saline and calculated as a percentage of total ventricular weight. Rabbits with ischemic area less than 10% or larger than 25% were excluded from the analysis. Animals were randomly assigned to vehicle and test compound groups. Test compounds were dissolved in 15% NMP, 10% Solutol and 75% de-ionized water (dH2O). Test compounds were given as an iv infusion at a rate targeted to reach plasma concentrations of 1 μM. After 30 min of compound administration the heart was subjected to 15 min of ischemia followed by 15 min of reperfusion.

hNav1.7, sequence (Q15858 whole entry): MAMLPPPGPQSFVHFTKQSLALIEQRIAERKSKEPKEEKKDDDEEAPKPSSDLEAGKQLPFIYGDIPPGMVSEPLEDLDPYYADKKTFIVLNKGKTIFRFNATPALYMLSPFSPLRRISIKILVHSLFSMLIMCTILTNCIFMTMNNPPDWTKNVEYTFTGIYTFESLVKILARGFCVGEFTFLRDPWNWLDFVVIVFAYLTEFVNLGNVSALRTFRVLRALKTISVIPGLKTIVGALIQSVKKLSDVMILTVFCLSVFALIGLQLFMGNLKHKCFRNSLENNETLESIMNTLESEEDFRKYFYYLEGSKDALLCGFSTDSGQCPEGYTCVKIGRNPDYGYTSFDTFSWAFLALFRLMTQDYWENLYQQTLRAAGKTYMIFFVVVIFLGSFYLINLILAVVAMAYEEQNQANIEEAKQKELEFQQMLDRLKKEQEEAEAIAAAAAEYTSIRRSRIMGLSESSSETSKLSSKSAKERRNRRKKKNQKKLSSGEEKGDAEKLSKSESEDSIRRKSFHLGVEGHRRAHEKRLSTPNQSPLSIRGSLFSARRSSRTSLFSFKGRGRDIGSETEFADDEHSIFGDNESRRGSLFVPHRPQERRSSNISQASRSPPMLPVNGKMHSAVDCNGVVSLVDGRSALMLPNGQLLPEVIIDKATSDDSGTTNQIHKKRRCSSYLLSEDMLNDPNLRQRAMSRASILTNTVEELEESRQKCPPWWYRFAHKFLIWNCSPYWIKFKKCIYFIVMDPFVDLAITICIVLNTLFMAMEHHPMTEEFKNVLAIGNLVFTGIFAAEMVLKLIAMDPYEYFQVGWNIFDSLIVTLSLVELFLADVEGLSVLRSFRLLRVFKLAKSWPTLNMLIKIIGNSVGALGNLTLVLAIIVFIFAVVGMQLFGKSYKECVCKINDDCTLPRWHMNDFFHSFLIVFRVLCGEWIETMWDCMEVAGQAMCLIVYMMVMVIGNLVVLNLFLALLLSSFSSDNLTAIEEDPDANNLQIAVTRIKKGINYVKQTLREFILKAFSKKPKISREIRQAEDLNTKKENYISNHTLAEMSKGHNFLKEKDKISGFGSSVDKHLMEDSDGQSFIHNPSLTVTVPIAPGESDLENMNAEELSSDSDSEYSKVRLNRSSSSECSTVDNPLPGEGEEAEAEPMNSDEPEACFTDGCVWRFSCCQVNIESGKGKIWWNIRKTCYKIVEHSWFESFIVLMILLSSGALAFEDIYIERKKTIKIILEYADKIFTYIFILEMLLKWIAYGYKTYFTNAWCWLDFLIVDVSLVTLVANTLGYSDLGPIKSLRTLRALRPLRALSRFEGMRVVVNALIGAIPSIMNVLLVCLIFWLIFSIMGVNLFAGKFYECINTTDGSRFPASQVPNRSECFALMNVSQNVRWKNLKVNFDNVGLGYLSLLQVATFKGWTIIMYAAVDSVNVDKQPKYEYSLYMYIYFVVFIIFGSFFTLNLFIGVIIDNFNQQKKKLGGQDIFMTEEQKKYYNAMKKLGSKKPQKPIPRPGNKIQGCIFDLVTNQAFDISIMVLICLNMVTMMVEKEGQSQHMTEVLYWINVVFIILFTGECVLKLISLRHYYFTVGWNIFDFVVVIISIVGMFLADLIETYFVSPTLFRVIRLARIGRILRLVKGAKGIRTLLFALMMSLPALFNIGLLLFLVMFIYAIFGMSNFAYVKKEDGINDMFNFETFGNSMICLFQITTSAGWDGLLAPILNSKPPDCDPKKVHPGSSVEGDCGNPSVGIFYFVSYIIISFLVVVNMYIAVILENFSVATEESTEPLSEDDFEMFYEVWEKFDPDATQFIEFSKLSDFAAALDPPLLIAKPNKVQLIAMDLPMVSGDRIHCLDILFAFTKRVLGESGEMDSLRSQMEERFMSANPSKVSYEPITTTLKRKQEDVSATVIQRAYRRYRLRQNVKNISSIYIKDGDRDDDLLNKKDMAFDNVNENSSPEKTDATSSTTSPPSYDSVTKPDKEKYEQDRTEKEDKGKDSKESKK

In the case of `Cc1cc(OC(F)(F)F)ccc1-c1cc2c(OCc3ncccn3)noc2cc1C` [Example 29, 6-methyl-5-(2-methyl-4-(trifluoromethoxy)phenyl)-3-(pyrimidin-2-ylmethoxy)benzo[d]isoxazole], in data set [1], the “Nav 1.7-VDB 1 uM” value is given as 34.2 percentage inhibition. Turning to `FC(F)(F)COc1ccc(-c2ccc3onc(OCc4ncccn4)c3c2)cn1` [Example 21, 3-(pyrimidin-2-ylmethoxy)-5-(6-(2,2,2-trifluoroethoxy)pyridin-3-yl)benzo[d]isoxazole], the Plasma concentration in data set [2] was 400 nM.
